Values after ≈ are worked out from the molar mass of the structure shown. Active and inactive are the calls of the source. No cut-off for these calls is given here.
Tests used:
[1] = target: Sodium channel protein type 5 subunit alpha (Homo sapiens, UniProt Q14524); test: Inhibition of human NaV1.5 expressed in HEK293 cells assessed as decrease in sodium current amplitude at -120 mV holding potential by Qpatch assay; assay type: ADME, cell-based
[2] = test system: Escherichia coli; test: Antibacterial activity against tolC deficient Escherichia coli 7623; assay type: functional
[3] = test system: Escherichia coli; test: Antibacterial activity against tolC deficient Escherichia coli Top10 harboring GyrB E793K mutant; assay type: functional
[4] = test system: Escherichia coli; test: Antibacterial activity against tolC deficient Escherichia coli Top10; assay type: functional
[5] = test system: Acinetobacter baumannii; test: Antibacterial activity against Acinetobacter baumannii BM4454; assay type: functional
[6] = test system: Klebsiella pneumoniae; test: Antibacterial activity against Klebsiella pneumoniae 1161486; assay type: functional
[7] = test system: Escherichia coli; test: Antibacterial activity against Escherichia coli 7623; assay type: functional
[8] = target: DNA gyrase (Escherichia coli, UniProt P0AES4+P0AES6); test: Inhibition of Escherichia coli his-tagged DNA gyrase supercoiling activity using pBR322 DNA in presence of ATP incubated for 1 hr by H19 dye based high throughput DNA gyrase assay; assay type: protein-complex assay
[9] = Cytotoxicity against mouse L5178Y cells (TK +/-) assessed as reduction in cell viability incubated for 72 hrs by Cell Titer-Glo assay
[10] = test system: Pseudomonas aeruginosa; test: Antibacterial activity against Pseudomonas aeruginosa; assay type: functional
[11] = target: DNA topoisomerase 2-alpha (Homo sapiens, UniProt P11388); test: Inhibition of human DNA topoisomerase 2 alpha using interlinked kDNA as substrate after 30 mins by ethidium bromide staining-based agarose gel electrophoresis method
[12] = Inhibition of Escherichia coli DNA topoisomerase 4 using interlinked kDNA as substrate after 30 mins by ethidium bromide staining-based agarose gel electrophoresis method
[13] = test system: Escherichia coli; test: Inhibition of Escherichia coli DNA topoisomerase 4 assessed as induction of enzyme-mediated DNA cleavage breaks
[14] = target: DNA gyrase (Klebsiella pneumoniae) (UniProt W1DID1+A0A080SQT2); test: Inhibition of Klebsiella pneumoniae DNA gyrase assessed as increase in single and double strand DNA cleavage products; assay type: protein-complex assay

Sequence of Sodium channel protein type 5 subunit alpha (Q14524 whole entry): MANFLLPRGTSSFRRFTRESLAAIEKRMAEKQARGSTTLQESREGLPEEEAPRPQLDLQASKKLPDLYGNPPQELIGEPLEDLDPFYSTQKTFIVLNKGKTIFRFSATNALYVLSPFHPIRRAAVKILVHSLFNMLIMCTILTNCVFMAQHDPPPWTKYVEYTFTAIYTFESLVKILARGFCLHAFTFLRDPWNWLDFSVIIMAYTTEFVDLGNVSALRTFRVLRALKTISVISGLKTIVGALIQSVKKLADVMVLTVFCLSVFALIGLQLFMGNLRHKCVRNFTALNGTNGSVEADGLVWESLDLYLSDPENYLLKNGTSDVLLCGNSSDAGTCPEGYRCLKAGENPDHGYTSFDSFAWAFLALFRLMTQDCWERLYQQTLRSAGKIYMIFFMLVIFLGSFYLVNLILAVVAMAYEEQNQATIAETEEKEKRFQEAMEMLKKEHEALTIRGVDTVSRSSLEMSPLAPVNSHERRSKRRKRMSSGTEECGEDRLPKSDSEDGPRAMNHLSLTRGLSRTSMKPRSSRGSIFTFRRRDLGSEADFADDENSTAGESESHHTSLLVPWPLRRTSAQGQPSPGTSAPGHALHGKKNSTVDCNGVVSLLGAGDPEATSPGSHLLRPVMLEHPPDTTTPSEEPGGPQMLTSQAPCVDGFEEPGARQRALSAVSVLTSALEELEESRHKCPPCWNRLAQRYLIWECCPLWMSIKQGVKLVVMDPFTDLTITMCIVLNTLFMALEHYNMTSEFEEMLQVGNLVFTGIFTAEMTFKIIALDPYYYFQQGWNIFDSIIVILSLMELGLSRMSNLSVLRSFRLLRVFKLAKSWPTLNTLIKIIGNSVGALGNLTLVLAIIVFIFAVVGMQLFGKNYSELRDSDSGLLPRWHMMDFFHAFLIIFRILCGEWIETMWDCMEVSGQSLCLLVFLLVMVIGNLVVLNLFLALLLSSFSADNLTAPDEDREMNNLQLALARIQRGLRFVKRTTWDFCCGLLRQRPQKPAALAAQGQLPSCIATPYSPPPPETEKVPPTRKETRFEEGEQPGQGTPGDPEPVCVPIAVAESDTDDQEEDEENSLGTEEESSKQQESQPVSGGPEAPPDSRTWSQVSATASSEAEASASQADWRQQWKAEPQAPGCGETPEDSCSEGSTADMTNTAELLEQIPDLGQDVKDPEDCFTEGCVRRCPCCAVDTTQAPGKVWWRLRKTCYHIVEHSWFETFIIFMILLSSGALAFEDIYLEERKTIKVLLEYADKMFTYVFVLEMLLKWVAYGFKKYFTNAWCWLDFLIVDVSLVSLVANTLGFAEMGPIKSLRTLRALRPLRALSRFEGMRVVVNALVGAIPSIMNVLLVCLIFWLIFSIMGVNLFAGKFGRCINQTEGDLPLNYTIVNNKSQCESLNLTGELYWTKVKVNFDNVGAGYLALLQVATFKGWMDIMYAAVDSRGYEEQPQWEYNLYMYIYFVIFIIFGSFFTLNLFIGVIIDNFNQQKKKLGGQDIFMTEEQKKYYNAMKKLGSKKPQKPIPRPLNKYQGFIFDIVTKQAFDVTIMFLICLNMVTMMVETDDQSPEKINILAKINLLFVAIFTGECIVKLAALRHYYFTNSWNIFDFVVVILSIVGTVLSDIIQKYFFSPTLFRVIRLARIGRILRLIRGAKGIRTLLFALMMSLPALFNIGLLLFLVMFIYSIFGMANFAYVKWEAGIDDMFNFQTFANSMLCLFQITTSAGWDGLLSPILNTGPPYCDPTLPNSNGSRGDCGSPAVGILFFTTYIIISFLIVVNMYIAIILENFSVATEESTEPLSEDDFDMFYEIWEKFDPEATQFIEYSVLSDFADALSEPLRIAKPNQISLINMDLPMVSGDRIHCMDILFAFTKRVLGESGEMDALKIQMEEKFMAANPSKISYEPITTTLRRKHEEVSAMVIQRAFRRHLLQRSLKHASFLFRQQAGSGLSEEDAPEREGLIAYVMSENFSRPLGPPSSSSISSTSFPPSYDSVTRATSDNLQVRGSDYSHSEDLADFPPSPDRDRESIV
Sequence of DNA topoisomerase 2-alpha (P11388 whole entry): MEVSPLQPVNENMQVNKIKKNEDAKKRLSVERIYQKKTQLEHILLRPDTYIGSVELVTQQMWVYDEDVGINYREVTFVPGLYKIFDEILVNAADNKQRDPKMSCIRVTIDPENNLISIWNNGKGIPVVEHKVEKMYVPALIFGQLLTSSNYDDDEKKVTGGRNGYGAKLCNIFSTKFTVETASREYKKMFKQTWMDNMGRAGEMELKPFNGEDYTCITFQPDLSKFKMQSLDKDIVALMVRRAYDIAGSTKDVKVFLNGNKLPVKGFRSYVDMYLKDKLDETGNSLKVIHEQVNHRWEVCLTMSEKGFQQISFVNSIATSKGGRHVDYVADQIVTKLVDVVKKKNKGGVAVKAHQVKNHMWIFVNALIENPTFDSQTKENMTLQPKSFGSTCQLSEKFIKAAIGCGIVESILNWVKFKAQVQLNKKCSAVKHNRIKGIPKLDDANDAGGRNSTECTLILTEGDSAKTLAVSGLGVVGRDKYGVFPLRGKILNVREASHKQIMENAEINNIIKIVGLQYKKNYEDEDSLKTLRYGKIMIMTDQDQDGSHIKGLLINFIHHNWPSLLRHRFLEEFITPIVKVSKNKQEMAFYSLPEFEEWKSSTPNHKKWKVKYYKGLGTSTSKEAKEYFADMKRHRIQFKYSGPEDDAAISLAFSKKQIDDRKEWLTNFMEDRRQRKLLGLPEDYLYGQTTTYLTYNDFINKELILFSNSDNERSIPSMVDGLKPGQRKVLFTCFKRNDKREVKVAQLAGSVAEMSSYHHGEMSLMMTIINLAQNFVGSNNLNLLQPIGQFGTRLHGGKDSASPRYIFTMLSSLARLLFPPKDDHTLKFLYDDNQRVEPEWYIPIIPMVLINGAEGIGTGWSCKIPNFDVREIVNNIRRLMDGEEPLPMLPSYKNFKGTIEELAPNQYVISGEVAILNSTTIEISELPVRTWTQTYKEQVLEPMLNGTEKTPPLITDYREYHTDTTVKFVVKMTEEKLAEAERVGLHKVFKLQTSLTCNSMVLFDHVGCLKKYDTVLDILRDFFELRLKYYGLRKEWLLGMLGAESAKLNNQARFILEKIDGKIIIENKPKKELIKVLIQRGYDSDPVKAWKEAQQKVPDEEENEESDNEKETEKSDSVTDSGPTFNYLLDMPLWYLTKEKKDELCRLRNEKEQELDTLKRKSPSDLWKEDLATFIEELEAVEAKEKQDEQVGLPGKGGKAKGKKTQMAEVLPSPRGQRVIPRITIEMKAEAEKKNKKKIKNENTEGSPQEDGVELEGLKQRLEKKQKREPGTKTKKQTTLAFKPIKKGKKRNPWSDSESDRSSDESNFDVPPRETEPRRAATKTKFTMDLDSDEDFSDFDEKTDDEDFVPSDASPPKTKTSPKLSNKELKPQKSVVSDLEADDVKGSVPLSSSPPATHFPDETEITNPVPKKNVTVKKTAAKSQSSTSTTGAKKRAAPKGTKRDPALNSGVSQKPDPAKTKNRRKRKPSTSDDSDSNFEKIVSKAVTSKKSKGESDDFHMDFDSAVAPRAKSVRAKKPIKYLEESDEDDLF

Compound | IC50 [1] | MIC [2] | MIC [3] | MIC [4] | MIC [5] | MIC [6] | MIC [7] | IC50 [8] | CC50 at 72 h ([9]; l5178y) | CC50 at 72 h ([9]; L5178Y cells (TK +/-)) | MIC [10] | IC50 [11] | IC50 [12] | inhibition [13] | inhibition [14]
Cc1sc(-c2ccccc2Cl)cc1C(=O)N[C@@H](CN)c1ccccc1 | 13 µM | ≤ 0.125 µg/mL | 4 µg/mL (≈ 10.8 µM) | ≤ 0.125 µg/mL | 4 µg/mL (≈ 10.8 µM) | 32 µg/mL (≈ 86.3 µM) | 8 µg/mL (≈ 21.6 µM) | 0.04 µM | 5 µg/mL (≈ 13.5 µM) |  |  |  |  |  | 
NCC(Nc1n[nH]c2ccc(-c3ccccc3Cl)cc12)c1ccccc1 (configuration not stated) |  | 4 µg/mL (≈ 11 µM) | 4 µg/mL (≈ 11 µM) | 4 µg/mL (≈ 11 µM) | 64 µg/mL (≈ 176 µM) | 64 µg/mL (≈ 176 µM) | 128 µg/mL (≈ 353 µM) | 3.2 µM |  | 5 µg/mL (≈ 13.8 µM) |  |  |  |  | 
NC[C@H](Nc1nccc2ccc(-c3ccccc3Cl)cc12)c1ccccc1 |  | 2 µg/mL (≈ 5.35 µM) | 2 µg/mL (≈ 5.35 µM) | 2 µg/mL (≈ 5.35 µM) | 32 µg/mL (≈ 85.6 µM) | 32 µg/mL (≈ 85.6 µM) | 64 µg/mL (≈ 171 µM) | 10 µM |  | 3 µg/mL (≈ 8.02 µM) |  |  |  |  | 
NCC(Oc1noc2ccc(-c3ccccc3Cl)cc12)c1ccccn1 (configuration not stated) |  | 0.25 µg/mL (≈ 0.683 µM) | 8 µg/mL (≈ 21.9 µM) | 0.25 µg/mL (≈ 0.683 µM) | 32 µg/mL (≈ 87.5 µM) |  | 64 µg/mL (≈ 175 µM) | 0.5 µM |  | 3 µg/mL (≈ 8.2 µM) |  |  |  |  | 
NC[C@H](Oc1noc2ncc(-c3ccccc3Cl)cc12)c1ccccc1 | 24 µM | 1 µg/mL (≈ 2.73 µM) | 16 µg/mL (≈ 43.7 µM) | 1 µg/mL (≈ 2.73 µM) | 64 µg/mL (≈ 175 µM) |  | 64 µg/mL (≈ 175 µM) | 0.5 µM |  | 20 µg/mL (≈ 54.7 µM) |  |  |  |  | 
N=C(N)NC[C@H](Oc1noc2ccc(-c3ccccc3Cl)cc12)c1ccccc1 |  | 0.25 µg/mL (≈ 0.614 µM) | 0.5 µg/mL (≈ 1.23 µM) | 0.25 µg/mL (≈ 0.614 µM) | 4 µg/mL (≈ 9.83 µM) | 16 µg/mL (≈ 39.3 µM) | 8 µg/mL (≈ 19.7 µM) | 0.16 µM | 11 µg/mL (≈ 27 µM) |  | 16 µg/mL (≈ 39.3 µM) |  |  |  | 
Cn1nc(NC(CN)c2ccccc2)c2cc(-c3ccccc3Cl)ccc21 (configuration not stated) |  | 4 µg/mL (≈ 10.6 µM) | 4 µg/mL (≈ 10.6 µM) | 4 µg/mL (≈ 10.6 µM) | 128 µg/mL (≈ 340 µM) | > 128 µg/mL | > 128 µg/mL | 7.9 µM |  | 5 µg/mL (≈ 13.3 µM) |  |  |  |  | 
NC[C@H](Oc1noc2ccc(-c3ccccc3Cl)cc12)c1ccccc1 | 22 µM | ≤ 0.125 µg/mL | 2 µg/mL (≈ 5.48 µM) | ≤ 0.125 µg/mL | 8 µg/mL (≈ 21.9 µM) | ≥ 128 µg/mL | 8 to 16 µg/mL (≈ 21.9 to 43.9 µM) | 0.16 µM | 10 µg/mL (≈ 27.4 µM) |  | ≥ 128 µg/mL | 210 µM | 90 µM | Active | Active
NC[C@H](Oc1n[nH]c2ccc(-c3ccccc3Cl)cc12)c1ccccc1 |  | 2 µg/mL (≈ 5.5 µM) | 2 µg/mL (≈ 5.5 µM) | 2 µg/mL (≈ 5.5 µM) | 32 µg/mL (≈ 87.9 µM) | 32 µg/mL (≈ 87.9 µM) | 32 µg/mL (≈ 87.9 µM) | 1.6 µM |  | 3 µg/mL (≈ 8.25 µM) |  |  |  |  | 
NC[C@@H](c1ccccc1)n1cnc2c(-c3ccccc3Cl)csc2c1=O |  | 2 to 4 µg/mL (≈ 5.24 to 10.5 µM) | 16 µg/mL (≈ 41.9 µM) | 2 µg/mL (≈ 5.24 µM) | > 128 µg/mL | > 128 µg/mL | > 128 µg/mL | 2 µM |  | 16 µg/mL (≈ 41.9 µM) |  |  |  |  | 
NC[C@H](Oc1noc2ccc(-c3ccccc3Cl)nc12)c1ccccc1 | 16 µM | 4 µg/mL (≈ 10.9 µM) | 16 µg/mL (≈ 43.7 µM) | 8 µg/mL (≈ 21.9 µM) | > 128 µg/mL |  | > 128 µg/mL | 1.6 µM | 5 µg/mL (≈ 13.7 µM) |  |  |  |  |  | 
Cn1nc(O[C@@H](CN)c2ccccc2)c2cc(-c3ccccc3Cl)ccc21 |  | 2 µg/mL (≈ 5.29 µM) | 2 µg/mL (≈ 5.29 µM) | 2 µg/mL (≈ 5.29 µM) | 64 µg/mL (≈ 169 µM) | > 128 µg/mL | > 128 µg/mL | 5 µM |  |  |  |  |  |  | 

— ChEMBL document CHEMBL4340534 (Bioorg Med Chem Lett, 2019)
